No end group written: not given here.
Experiments:
[1] = test system: epithelial MDBK cells (Madin Darby Bovine Kidney); assay: cytotoxicity against eukaryotic cells, Trypan Blue; format: cell-based; settings: overnight incubation
Protocol: Peptides cytotoxicity against epithelial MDBK cells (Madin Darby Bovine Kidney) was determined using cell cultures of about 5x10^5 cells/ml with and without peptides, with overnight incubation at 37°C with CO2. The negative control was in medium without peptide; positive control was in medium with 0.2% of Triton x100, to completely lyse cells. Cells vitality was assessed adding every well with 20 µl of Trypan Blue, incubating other 5 minutes at 37°C. MCC10 was the minimal peptide concentration with 10% of cytotoxicity.

Mutton RBCs = assay: haemolysis test; format: cell-based; settings: maximum concentration 100 µg/ml; 1 hour at room temperature
Protocol: Mutton RBCs, sampled immediately before the test, were washed with isotonic buffer to obtain clear supernatant. The washed RBCs were incubated with different peptide concentrations for 1 hour at room temperature. After this the solution was centrifuged and the haemolysis in the supernatant quantified with a spectrophotometer at 450 nm. The positive control was RBC lysed with 0,1% of Tryton. The sample determined the maximal optical density. The haemolysis percentage was calculated as sample optical density at 450 nm and positive control optical density ratio. MHC10 was the minimal peptide concentration able to lyse 10% of RBC.

[2] = at 40 µg / ml; cited from earlier work

| Sequence | Cytotoxicity: cell number percentage reduction in comparison with control ([1]; peptide 12.5 µg/ml) [%] | Cytotoxicity: cell number percentage reduction in comparison with control ([1]; peptide 100 µg/ml) [%] | haemolytic effect (Mutton RBCs) [%] | hemolysis [2] |
| --- | --- | --- | --- | --- |
| KLIPILSKTIPAIKNLFYKI [NCP-2] | 3 | 5 | < 10 |  |
| KLIWILSKTIPAIKNLFYKI [NCP-3] | 3 | 7 | < 10 |  |
| KFFKFFKFFK [synthetic peptide consisting of cationic lysine residues and hydrophobic phenylalanine residues] |  |  |  | severely hemolytic |

From patent publication EP3298025B1, “NEW AMINO ACID SEQUENCES WITH MI[…] DERIVED FROM NAJA ATRA CARDIOTOXIN 1 (CTX-1)” (Università degli Studi di Parma, priority 2015, dated 2016)
